Assay results reported in patent US20230000876A1, “TREATING CANCERS WITH A CYCLIN-DEPENDENT KINASE INHIBITOR” (Nuvation Bio Inc., priority 2021, published 2023).

Tests used:
[1] = tested on: U-118MG xenograft tumors; assay: U-118MG glioma subcutaneous xenograft model; assay type: in vivo, female CB17 SCID mice; settings: Group 3: Compound (I) 30 mg/kg PO, QD; PG-D27
[2] = tested on: 7 melanoma cell lines (A375, COLO 829, SK-MEL-3, SK-MEL-5, SK-MEL-24, SK-MEL-28, SK-MEL-31); assay: Anti-proliferation assay, 7 melanoma cell lines taken together; assay type: cell-based
Description: (§1) Inhibition rate (IR) of the tested compounds was determined by the following formula: IR (%)=(1−(RLU compound−RLU day0)/(RLU control−RLU day0))*100%. The inhibitions of different dose of compound were calculated in Excel file, and then were used to plot inhibition curves and evaluate related parameters, such as Min (%), Max (%) and GI50. The data were interpreted by GraphPad Prism.
The anti-proliferation effect of the compound of formula (I) in 7 CNS melanoma cell lines was evaluated.

[3] = tested on: A375; assay: Cell viability assay, melanoma cell line A375; assay type: cell-based
Description: (§2) 4.4.4 Compound Plate (10×) Preparation and Compound Treatment • 10× concentrate compound plate preparation: Add 198 μL of assay medium into each well of the V-bottom plate; then transfer 2 μL of the stock compound solution of each concentration from the stock plate. Add 2 μL of DMSO into the Blank and Control wells. Pipette up and down to mix well. This V-plate is designated as the 10× concentrate compound plate. • For day 0 plate, add 15 μL of the DMSO-medium into the Control wells. The final DMSO concentration was 0.1%. Then directly proceed to cell viability assay. • For assay plate, add 15 μL of the compound-medium of each well from the 10× concentrate compound plate into the cells in 96-well assay plate according to the plate map. Add 15 μL of the DMSO-medium into the Blank and Control wells. The final DMSO concentration was 0.1%. • Return the assay plate into incubator and incubate for 6 days.
(§3) The procedures were performed according to the Promega CellTiter-Glo Luminescent Cell Viability Assay Kit manual (Promega-G7573). • The CellTiter-Glo buffer was thawed and equilibrated to room temperature prior to use. • CellTiter-Glo Substrate was equilibrated to room temperature prior to use. • The entire liquid volume of CellTiter-Glo Buffer was transferred into the amber bottle containing CellTiter-Glo Substrate to reconstitute the lyophilized enzyme/substrate mixture. […] Plates were covered with aluminum foil to protect from light. • The contents were mixed for 2 minutes on an orbital shaker to induce cell lysis. • The plate was incubated at room temperature for 20 minutes to stabilize luminescent signal. • Record luminescence on the 2104 EnVision plate reader.
as §1, with “The data were interpreted by GraphPad Prism.” left out

[4] = tested on: PC-9-luc; assay: CellTiter-Glo anti-proliferation assay, PC-9-luc; assay type: cell-based
Description: (§4) The anti-proliferation effect of 2 compounds (the compound of formula (I) and temozolomide) in 7 CNS metastasis cell lines (MOLT-4-luc, Nalm-6-luc, NCI-H460-luc, ACHN-luc2, PC-9-luc, H1975-luc, and KM12-luc) was evaluated.
(§5) The plating of cells and compound treatments are shown below in the plate map (Table 12). One plate was needed for the test of 2 compounds (the compound of formula (I) and temozolomide) in one cell line. The compound of formula (I) was tested from 10 μM, 3-fold serial dilution. Temozolomide was tested from 100 μM, 3-fold serial dilution.
(§6) All the cell lines were maintained in culture conditions at 37° C. in an atmosphere with 5% CO2 in air. The tumor cells were routinely subcultured. The cells growing in an exponential growth phase were harvested and counted for plating.
(§7) Cells were counted by haemocytometer with Trypan blue staining. Next, 135 μL of cell suspension were plated into the assay plates according to the plate map and 135 μL of assay medium into the blank wells. The plates were incubated at 37° C., 5% CO2, 95% air and 100% relative humidity overnight.
as §2
(§8) The procedures were performed according to the Promega CellTiter-Glo Luminescent Cell Viability Assay Kit manual (Promega-G7573). • The CellTiter-Glo buffer was thawed and equilibrated to room temperature prior to use. • CellTiter-Glo Substrate was equilibrated to room temperature prior to use. • The entire liquid volume of CellTiter-Glo Buffer was transferred into the amber bottle containing CellTiter-Glo Substrate to reconstitute the lyophilized enzyme/substrate mixture. This forms the CellTiter-Glo Reagent. • The contents were mixed by gently vortexing to obtain a homogeneous solution. • The plate was equilibrated and its contents to room temperature for approximately 30 minutes. 75 μL (equal to the half volume of culture medium present in each well) CellTiter-Glo • Reagent was added in each well. Plates were covered with aluminum foil to protect from light. • The contents were mixed for 2 minutes on an orbital shaker to induce cell lysis. • The plate was incubated at room temperature for 20 minutes to stabilize luminescent signal. • Record luminescence on the 2104 EnVision plate reader.
as §1

[5] = tested on: VCap prostate cancer; assay: Non-castrated VCap prostate cancer model; assay type: in vivo, male CB17/Scid mice
Description: Compound (I), enzalutamide, and abiraterone were tested in non-castrated VCap prostate cancer model in male CB17/Scid mice.
All treatment groups reduced mean tumor volume.

[6] = tested on: SK-MEL-3; assay: Cell viability assay, melanoma cell line SK-MEL-3; assay type: cell-based
Description: as §2, §3
as §1, with “The data were interpreted by GraphPad Prism.” left out

[7] = tested on: xMDA-MB-361 breast tumor; assay: xMDA-MB-361 breast tumor model (ER-positive/HER2-positive); assay type: in vivo, female BALB/c nude mice; settings: Group 5: Compound (I) 30 mg/kg PO QD*42 days
Description: Trastuzumab, tucatinib, Compound (I), and fulvestrant were tested in a xMDA-MB-361 breast tumor model (ER-positive/HER2-positive) on female BALB/c nude mice.

[8] = tested on: NCI-H460-luc; assay: CellTiter-Glo anti-proliferation assay, NCI-H460-luc; assay type: cell-based
Description: as §4, §5, §6, §7, §2, §8, §1

[9] = inhibition rate, 6 days, Compound (I) from 10 μM, temozolomide from 100 μM, 3-fold, 9 points

SMILES: CC(C)N1CCOc2c(F)cc(-c3nc(Nc4ccc(C5CCN(C)CC5)cn4)ncc3F)cc21 [Compound (I), 5-fluoro-4-(8-fluoro-4-isopropyl-3,4-dihydro-2H-benzo[b][1,4]oxazin-6-yl)-N-(5-(1-methylpiperidin-4-yl)pyridin-2-yl)pyrimidin-2-amine]
- TGI [1]: 96.40%
- Inhibitory effect in cell viability assay [2]: significant inhibitory effects
- GI50 ([2]; read-out: Absolute GI50 values, range over 7 cell lines): 156 to 1240 nM
- GI50 ([3]; Homo sapiens, A-375, read-out: Absolute GI50): 156 nM
- Max (%) ([3]; inhibition rate): 101.21%
- Min (%) ([3]; inhibition rate): −0.12%
- GI50 ([4]; 144 h, 6 days incubation, read-out: Absolute GI50): 2790 nM
- Max (%) [4, 9]: 116.3%
- Min (%) [4, 9]: −13.7%
- Tumor volume (mean ± SEM) ([5]; Group 3: Compound (I) 10 mg/kg p.o. QD * 26 days, Day 0): 171.8 ± 6 mm^3
- Tumor volume (mean ± SEM) ([5]; Group 3: Compound (I) 10 mg/kg p.o. QD * 26 days, Day 4): 221.9 ± 15.2 mm^3
- Tumor volume (mean ± SEM) ([5]; Group 3: Compound (I) 10 mg/kg p.o. QD * 26 days, Day 7): 260.9 ± 13.8 mm^3
- Tumor volume (mean ± SEM) ([5]; Group 3: Compound (I) 10 mg/kg p.o. QD * 26 days, Day 11): 310.5 ± 19.9 mm^3
- Tumor volume (mean ± SEM) ([5]; Group 3: Compound (I) 10 mg/kg p.o. QD * 26 days, Day 14): 381.2 ± 15.4 mm^3
- Tumor volume (mean ± SEM) ([5]; Group 3: Compound (I) 10 mg/kg p.o. QD * 26 days, Day 18): 420.6 ± 20.2 mm^3
- Tumor volume (mean ± SEM) ([5]; Group 3: Compound (I) 10 mg/kg p.o. QD * 26 days, Day 21): 514.2 ± 16.5 mm^3
- Tumor volume (mean ± SEM) ([5]; Group 3: Compound (I) 10 mg/kg p.o. QD * 26 days, Day 25): 596.9 ± 22.9 mm^3
- Tumor volume (mean ± SEM) ([5]; Group 4: Compound (I) 30 mg/kg p.o. QD * 26 days, Day 0): 171.7 ± 6.1 mm^3
- Tumor volume (mean ± SEM) ([5]; Group 4: Compound (I) 30 mg/kg p.o. QD * 26 days, Day 4): 218.9 ± 14.4 mm^3
- Tumor volume (mean ± SEM) ([5]; Group 4: Compound (I) 30 mg/kg p.o. QD * 26 days, Day 7): 233.4 ± 16.4 mm^3
- Tumor volume (mean ± SEM) ([5]; Group 4: Compound (I) 30 mg/kg p.o. QD * 26 days, Day 11): 253.7 ± 20.6 mm^3
- Tumor volume (mean ± SEM) ([5]; Group 4: Compound (I) 30 mg/kg p.o. QD * 26 days, Day 14): 279.1 ± 23.6 mm^3
- Tumor volume (mean ± SEM) ([5]; Group 4: Compound (I) 30 mg/kg p.o. QD * 26 days, Day 18): 259.2 ± 23.5 mm^3
- Tumor volume (mean ± SEM) ([5]; Group 4: Compound (I) 30 mg/kg p.o. QD * 26 days, Day 21): 235.9 ± 18.3 mm^3
- Tumor volume (mean ± SEM) ([5]; Group 4: Compound (I) 30 mg/kg p.o. QD * 26 days, Day 25): 232.9 ± 21.3 mm^3
- Antitumor effect ([5]; compound (I) 30 mg/kg PO QD, enzalutamide 20 mg/kg PO QD): greatest inhibition of tumor growth
- GI50 ([6]; Homo sapiens, SK-MEL3, read-out: Absolute GI50): 174 nM
- Max (%) ([6]; inhibition rate): 111.93%
- Min (%) ([6]; inhibition rate): −1.51%
- Tumor volume (mean ± SEM) ([7]; Day 0): 157 ± 11 mm^3
- Tumor volume (mean ± SEM) ([7]; Day 3): 202 ± 10 mm^3
- Tumor volume (mean ± SEM) ([7]; Day 7): 271 ± 34 mm^3
- Tumor volume (mean ± SEM) ([7]; Day 10): 316 ± 43 mm^3
- Tumor volume (mean ± SEM) ([7]; Day 14): 342 ± 49 mm^3
- Tumor volume (mean ± SEM) ([7]; Day 17): 326 ± 70 mm^3
- Tumor volume (mean ± SEM) ([7]; Day 21): 360 ± 84 mm^3
- Tumor volume (mean ± SEM) ([7]; Day 24): 429 ± 119 mm^3
- Tumor volume (mean ± SEM) ([7]; Day 28): 542 ± 146 mm^3
- Tumor volume (mean ± SEM) ([7]; Day 31): 571 ± 150 mm^3
- Tumor volume (mean ± SEM) ([7]; Day 35): 587 ± 148 mm^3
- Tumor volume (mean ± SEM) ([7]; Day 38): 629 ± 164 mm^3
- Tumor volume (mean ± SEM) ([7]; Day 42): 608 ± 145 mm^3
- GI50 ([8]; NCI-H460-Luc, 144 h, 6 days incubation, read-out: Absolute GI50): 228 nM
- Max (%) [8, 9]: 101.1%
- Min (%) [8, 9]: 1.9%
